Experimental data: patent US12187742B2 (XRAD Therapeutics, Inc., priority 2018, dated 2025)
pIC50: −log10 of the molar value. Where a name gives a salt, the structure may show the parent alone.

Columns and labels:
ATM = ATM (Homo sapiens (Human), UniProt Q13315); assay: ATM in Cell Western Assay (pKAP1 in etoposide-treated MCF-7 cells); assay type: cell-based; conditions: pKAP1 in etoposide-treated MCF-7 cells
In short: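 After paraformaldehyde fixation and Triton X-100 permeabilization, immunostained plates were read by infrared scanning (ODYSSEY CLx). Compound was given as 10 doses, 3-fold dilutions from a 1 μM final top concentration.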

DNA-PK = DNA-PK (Homo sapiens (Human), UniProt P78527); assay: DNA-PK Enzyme-Linked Immunosorbent Assay (phosphorylation of GST-p53 (1-101) peptide); assay type: biochemical; conditions: ELISA, 20 μM ATP
In short: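 Inhibition measured by 450 nm absorbance after HRP/TMB detection of phospho-Ser15 on immobilized GST-p53 (1-101). The kinase reaction used 0.1 μg/mL DNA-PK and 20 μM ATP, 1 h at 25 °C. Ten 3-fold compound dilutions, top final concentration 100 nM.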

ATM, sequence (Q13315 whole entry): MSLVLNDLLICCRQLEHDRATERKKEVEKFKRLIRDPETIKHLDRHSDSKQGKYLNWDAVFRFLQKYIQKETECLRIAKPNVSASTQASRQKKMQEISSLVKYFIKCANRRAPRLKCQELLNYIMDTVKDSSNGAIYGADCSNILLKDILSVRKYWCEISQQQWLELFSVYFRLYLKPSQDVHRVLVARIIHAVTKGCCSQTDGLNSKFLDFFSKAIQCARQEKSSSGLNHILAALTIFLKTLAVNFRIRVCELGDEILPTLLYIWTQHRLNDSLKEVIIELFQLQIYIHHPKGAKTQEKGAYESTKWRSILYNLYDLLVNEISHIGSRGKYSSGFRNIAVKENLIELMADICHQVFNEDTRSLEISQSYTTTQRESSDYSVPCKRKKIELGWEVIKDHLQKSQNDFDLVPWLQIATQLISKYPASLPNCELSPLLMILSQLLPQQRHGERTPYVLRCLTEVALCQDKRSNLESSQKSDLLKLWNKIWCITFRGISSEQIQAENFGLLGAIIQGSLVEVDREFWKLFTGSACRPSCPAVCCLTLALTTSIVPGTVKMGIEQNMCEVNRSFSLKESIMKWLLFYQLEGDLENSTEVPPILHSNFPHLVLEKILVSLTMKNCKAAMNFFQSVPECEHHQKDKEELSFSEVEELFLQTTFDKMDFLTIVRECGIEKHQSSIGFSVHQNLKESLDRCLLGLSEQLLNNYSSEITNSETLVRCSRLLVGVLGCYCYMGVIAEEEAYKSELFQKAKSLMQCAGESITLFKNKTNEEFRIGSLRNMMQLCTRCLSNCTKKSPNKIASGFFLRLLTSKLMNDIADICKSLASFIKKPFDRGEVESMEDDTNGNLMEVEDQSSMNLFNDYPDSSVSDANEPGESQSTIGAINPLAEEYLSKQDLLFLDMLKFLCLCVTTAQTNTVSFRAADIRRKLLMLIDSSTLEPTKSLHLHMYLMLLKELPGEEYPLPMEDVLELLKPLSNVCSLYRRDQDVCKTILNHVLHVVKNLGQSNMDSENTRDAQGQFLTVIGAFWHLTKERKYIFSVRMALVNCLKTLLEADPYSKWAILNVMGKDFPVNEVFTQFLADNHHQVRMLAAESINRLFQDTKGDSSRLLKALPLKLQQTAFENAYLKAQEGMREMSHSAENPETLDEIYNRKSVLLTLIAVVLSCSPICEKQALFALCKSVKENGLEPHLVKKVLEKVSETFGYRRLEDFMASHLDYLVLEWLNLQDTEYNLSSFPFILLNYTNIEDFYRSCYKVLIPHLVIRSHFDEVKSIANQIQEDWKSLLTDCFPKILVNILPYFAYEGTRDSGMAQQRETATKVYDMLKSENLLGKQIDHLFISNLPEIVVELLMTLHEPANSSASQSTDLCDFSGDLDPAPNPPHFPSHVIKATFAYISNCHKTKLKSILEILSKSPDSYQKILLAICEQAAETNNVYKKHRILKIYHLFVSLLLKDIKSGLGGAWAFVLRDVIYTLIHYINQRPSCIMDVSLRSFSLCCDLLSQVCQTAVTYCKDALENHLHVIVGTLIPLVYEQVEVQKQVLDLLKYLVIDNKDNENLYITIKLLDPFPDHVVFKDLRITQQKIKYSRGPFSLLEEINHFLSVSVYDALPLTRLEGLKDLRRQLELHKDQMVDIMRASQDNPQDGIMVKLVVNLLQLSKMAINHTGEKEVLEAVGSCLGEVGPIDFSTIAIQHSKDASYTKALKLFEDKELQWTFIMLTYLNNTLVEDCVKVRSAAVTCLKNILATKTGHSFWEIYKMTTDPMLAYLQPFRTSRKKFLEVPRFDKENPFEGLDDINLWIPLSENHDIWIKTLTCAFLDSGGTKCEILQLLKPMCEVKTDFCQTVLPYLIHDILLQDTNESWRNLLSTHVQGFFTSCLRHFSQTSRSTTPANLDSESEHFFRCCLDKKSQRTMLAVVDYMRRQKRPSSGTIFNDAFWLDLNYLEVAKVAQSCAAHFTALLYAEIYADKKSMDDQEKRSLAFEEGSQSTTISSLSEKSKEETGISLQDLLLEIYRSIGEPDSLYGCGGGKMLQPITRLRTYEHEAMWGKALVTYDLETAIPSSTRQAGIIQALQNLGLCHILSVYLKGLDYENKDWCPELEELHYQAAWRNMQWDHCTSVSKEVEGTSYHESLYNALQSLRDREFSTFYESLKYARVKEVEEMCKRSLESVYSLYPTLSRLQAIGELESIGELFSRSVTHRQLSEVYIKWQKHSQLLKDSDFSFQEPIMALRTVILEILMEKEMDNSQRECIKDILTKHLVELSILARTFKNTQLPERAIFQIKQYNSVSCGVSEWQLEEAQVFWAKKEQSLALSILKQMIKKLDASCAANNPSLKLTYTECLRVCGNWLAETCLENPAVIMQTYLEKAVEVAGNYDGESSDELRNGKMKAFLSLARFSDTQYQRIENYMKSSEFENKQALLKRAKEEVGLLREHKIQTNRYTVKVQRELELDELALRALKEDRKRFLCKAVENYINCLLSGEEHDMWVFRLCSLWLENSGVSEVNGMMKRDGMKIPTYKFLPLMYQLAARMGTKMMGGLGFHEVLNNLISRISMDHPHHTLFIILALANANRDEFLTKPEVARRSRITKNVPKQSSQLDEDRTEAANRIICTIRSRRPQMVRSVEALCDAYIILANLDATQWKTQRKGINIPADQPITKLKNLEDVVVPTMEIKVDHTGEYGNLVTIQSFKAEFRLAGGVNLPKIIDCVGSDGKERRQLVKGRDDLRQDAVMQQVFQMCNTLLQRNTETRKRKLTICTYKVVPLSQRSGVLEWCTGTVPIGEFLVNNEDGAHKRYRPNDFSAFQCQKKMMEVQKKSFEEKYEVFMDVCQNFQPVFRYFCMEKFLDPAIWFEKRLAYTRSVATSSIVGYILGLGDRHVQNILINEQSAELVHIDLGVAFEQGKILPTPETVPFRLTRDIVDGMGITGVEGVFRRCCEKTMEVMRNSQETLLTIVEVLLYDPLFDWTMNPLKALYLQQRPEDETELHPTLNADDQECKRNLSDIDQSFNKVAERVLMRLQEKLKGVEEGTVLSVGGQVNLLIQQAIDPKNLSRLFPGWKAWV

Compound	pIC50 (ATM)	pIC50 (DNA-PK)
CC(C)NCCOc1ncc(-c2cc3c(cc2F)ncc2c3[C@]3(C[C@@H](c4ccccc4F)C3)C(=O)N2C)cc1NS(C)(=O)=O [Example 427, trans-N-(5-(7′-Fluoro-3-(2-fluorophenyl)-3′-methyl-2′-oxo-2′,3′-dihydrospiro[cyclobutane-1,1′-pyrrolo[2,3-c]quinolin]-8′-yl)-2-(2-(isopropylamino)ethoxy)pyridin-3-yl)methanesulfonamide]	< 7.00	7.00 to 9.00
COc1cccc([C@H]2C[C@]3(C2)C(=O)N(C)c2cnc4cc(F)c(-c5cnc(OCCNC(C)C)c(NS(C)(=O)=O)c5)cc4c23)n1 [Example 428, cis-N-(5-(7′-Fluoro-3-(6-methoxypyridin-2-yl)-3′-methyl-2′-oxo-2′,3′-dihydrospiro[cyclobutane-1,1′-pyrrolo[2,3-c]quinolin]-8′-yl)-2-(2-(isopropylamino)ethoxy)pyridin-3-yl)methanesulfonamide]	7.00 to 9.00	7.00 to 9.00
COc1cccc([C@H]2C[C@@]3(C2)C(=O)N(C)c2cnc4cc(F)c(-c5cnc(OCCNC(C)C)c(NS(C)(=O)=O)c5)cc4c23)n1 [Example 429, trans-N-(5-(7′-Fluor-3-(6-methoxypyridin-2-yl)-3′-methyl-2′-oxo-2′,3′-dihydrospiro[cyclobutane-1,1′-pyrrolo[2,3-c]quinolin]-8′-yl)-2-(2-(isopropylamino)ethoxy)pyridin-3-yl)methanesulfonamide]	7.00 to 9.00	7.00 to 9.00
COc1ccc([C@H]2C[C@]3(C2)C(=O)N(C)c2cnc4cc(F)c(-c5cnc(OCCNC(C)C)c(NS(C)(=O)=O)c5)cc4c23)cn1 [Example 430]	7.00 to 9.00	7.00 to 9.00
COc1ccc([C@H]2C[C@@]3(C2)C(=O)N(C)c2cnc4cc(F)c(-c5cnc(OCCNC(C)C)c(NS(C)(=O)=O)c5)cc4c23)cn1 [Example 431, trans-N-(5-(7′-Fluoro-3-(6-methoxypyridin-3-yl)-3′-methyl-2′-oxo-2′,3′-dihydrospiro[cyclobutane-1,1′-pyrrolo[2,3-c]quinolin]-8′-yl)-2-(2-(isopropylamino)ethoxy)pyridin-3-yl)methanesulfonamide]	< 7.00	< 7.00
COc1cc([C@H]2C[C@]3(C2)C(=O)N(C)c2cnc4cc(F)c(-c5cnc(OCCNC(C)C)c(NS(C)(=O)=O)c5)cc4c23)ccn1 [Example 432, cis-N-(5-(7′-Fluoro-3-(2-methoxypyridin-4-yl)-3′-methyl-2′-oxo-2′,3′-dihydrospiro[cyclobutane-1,1′-pyrrolo[2,3-c]quinolin]-8′-yl)-2-(2-(isopropylamino)ethoxy)pyridin-3-yl)methanesulfonamide]	7.00 to 9.00	7.00 to 9.00
COc1cc([C@H]2C[C@@]3(C2)C(=O)N(C)c2cnc4cc(F)c(-c5cnc(OCCNC(C)C)c(NS(C)(=O)=O)c5)cc4c23)ccn1 [Example 433, trans-N-(5-(7′-Fluoro-3-(2-methoxypyridin-4-yl)-3′-methyl-2′-oxo-2′,3′-dihydrospiro[cyclobutane-1,1′-pyrrolo[2,3-c]quinolin]-8′-yl)-2-(2-(isopropylamino)ethoxy)pyridin-3-yl)methanesulfonamide]	< 7.00	7.00 to 9.00
CC(C)NCCOc1ncc(-c2cc3c(cc2F)ncc2c3[C@]3(C[C@H](c4ccccn4)C3)C(=O)N2C)cc1NS(C)(=O)=O [Example 434, cis-N-(5-(7′-Fluoro-3′-methyl-2′-oxo-3-(pyridin-2-yl)-2′,3′-dihydrospiro [cyclobutane-1,1′-pyrrolo[2,3-c]quinolin]-8′-yl)-2-(2-(isopropylamino)ethoxy)pyridin-3-yl)methanesulfonamide]	7.00 to 9.00	7.00 to 9.00
CC(C)NCCOc1ncc(-c2cc3c(cc2F)ncc2c3[C@]3(C[C@@H](c4ccccn4)C3)C(=O)N2C)cc1NS(C)(=O)=O [Example 435, trans-N-(5-(7′-Fluoro-3′-methyl-2′-oxo-3-(pyridin-2-yl)-2′,3′-dihydrospiro[cyclobutane-1,1′-pyrrolo[2,3-c]quinolin]-8′-yl)-2-(2-(isopropylamino)ethoxy)pyridin-3-yl)methanesulfonamide]	< 7.00	7.00 to 9.00
CC(C)NCCOc1ncc(-c2cc3c(cc2F)ncc2c3[C@]3(C[C@H](c4cccnc4)C3)C(=O)N2C)cc1NS(C)(=O)=O [Example 436, cis-N-(5-(7′-Fluoro-3′-methyl-2′-oxo-3-(pyridin-3-yl)-2′,3′-dihydrospiro[cyclobutane-1,1′-pyrrolo[2,3-c]quinolin]-8′-yl)-2-(2-(isopropylamino)ethoxy)pyridin-3-yl)methanesulfonamide]	7.00 to 9.00	7.00 to 9.00
CC(C)NCCOc1ncc(-c2cc3c(cc2F)ncc2c3[C@]3(C[C@@H](c4cccnc4)C3)C(=O)N2C)cc1NS(C)(=O)=O [Example 437, trans-N-{5-(7′-Fluoro-3′-methyl-2′-oxo-3-(pyridin-3-yl)-2′,3′-dihydrospiro[cyclobutane-1,1′-pyrrolo[2,3-c]quinolin]-8′-yl)-2-(2-(isopropylamino)ethoxy)pyridin-3-yl)methanesulfonamide]	< 7.00	7.00 to 9.00
CC(C)NCCOc1ncc(-c2cc3c(cc2F)ncc2c3[C@]3(C[C@H](c4ccncc4)C3)C(=O)N2C)cc1NS(C)(=O)=O [Example 438]	7.00 to 9.00	7.00 to 9.00
CC(C)NCCOc1ncc(-c2cc3c(cc2F)ncc2c3[C@]3(C[C@@H](c4ccncc4)C3)C(=O)N2C)cc1NS(C)(=O)=O [Example 439, trans-N-{5-(7′-Fluoro-3′-methyl-2′-oxo-3-(pyridin-4-yl)-2′,3′-dihydrospiro[cyclobutane-1,1′-pyrrolo[2,3-c]quinolin]-8′-yl)-2-(2-(isopropylamino)ethoxy)pyridin-3-yl)methanesulfonamide]	< 7.00	7.00 to 9.00
CC(C)NCCOc1ncc(-c2cc3c(cc2F)ncc2c3[C@]3(C[C@H](c4cccc(=O)[nH]4)C3)C(=O)N2C)cc1NS(C)(=O)=O [Example 440, cis-N-(5-(7′-Fluoro-3′-methyl-2′-oxo-3-(6-oxo-1,6-dihydropyridin-2-yl)-2′,3′-dihydrospiro[cyclobutane-1,1′-pyrrolo[2,3-c]quinolin]-8′-yl)-2-(2-(isopropylamino)ethoxy)pyridin-3-yl)methanesulfonamide]	< 7.00	7.00 to 9.00
CC(C)NCCOc1ncc(-c2cc3c4c(cnc3cc2F)N(C)C(=O)C42CC(C)(C)C2)cc1NS(C)(=O)=O [Example 446, N-(5-(7′-Fluoro-3,3,3′-trimethyl-2′-oxo-2′,3′-dihydrospiro[cyclobutane-1,1′-pyrrolo[2,3-c]quinolin]-8′-yl)-2-(2-(isopropylamino)ethoxy)pyridin-3-yl)methanesulfonamide]	7.00 to 9.00	> 9.30
CC(C)NCCOc1ncc(-c2cc3c(cc2F)ncc2c3[C@]3(C[C@H](C)C3)C(=O)N2C)cc1NS(C)(=O)=O [Example 448, cis-N-(5-(7′-Fluoro-3,3′-dimethyl-2′-oxo-2′,3′-dihydrospiro[cyclobutane-1,1′-pyrrolo[2,3-c]quinolin]-8′-yl)-2-(2-(isopropylamino)ethoxy)pyridin-3-yl)methanesulfonamide]	7.00 to 9.00	7.00 to 9.00
CC(C)NCCOc1ncc(-c2cc3c(cc2F)ncc2c3[C@]3(C[C@H](Cc4ccccc4)C3)C(=O)N2C)cc1NS(C)(=O)=O [Example 451, cis-N-(5-(3-Benzyl-7′-fluoro-3′-methyl-2′-oxo-2′,3′-dihydrospiro[cyclobutane-1,1′-pyrrolo[2,3-c]quinolin]-8′-yl)-2-(2-(isopropylamino)ethoxy)pyridin-3-yl)methanesulfonamide]	7.00 to 9.00	7.00 to 9.00
CC(C)NCCOc1ncc(-c2cc3c(cc2F)ncc2c3[C@]3(C[C@H](C(C)(C)O)C3)C(=O)N2C)cc1NS(C)(=O)=O [Example 456, cis-N-(5-(7′-Fluoro-3-(2-hydroxypropan-2-yl)-3′-methyl-2′-oxo-2′,3′-dihydrospiro[cyclobutane-1,1′-pyrrolo[2,3-c]quinolin]-8′-yl)-2-(2-(isopropylamino)ethoxy)pyridin-3-yl)methanesulfonamide]	7.00 to 9.00	7.00 to 9.00
CC(C)NCCOc1ncc(-c2cc3c(cc2F)ncc2c3[C@]3(C[C@H](Nc4ccccc4)C3)C(=O)N2C)cc1NS(C)(=O)=O [Example 459, cis-N-(5-(7′-Fluoro-3′-methyl-2′-oxo-3-(phenylamino)-2′,3′-dihydrospiro[cyclobutane-1,1′-pyrrolo[2,3-c]quinolin]-8′-yl)-2-(2-(isopropylamino)ethoxy)pyridin-3-yl)methanesulfonamide]	7.00 to 9.00	9.00 to 9.30
CC(C)NCCOc1ncc(-c2cc3c(cc2F)ncc2c3[C@]3(C[C@@H](Nc4ccccc4)C3)C(=O)N2C)cc1NS(C)(=O)=O [Example 460, trans-N-(5-(7′-Fluoro-3′-methyl-2′-oxo-3-(phenylamino)-2′,3′-dihydrospiro[cyclobutane-1,1′-pyrrolo[2,3-c]quinolin]-8′-yl)-2-(2-(isopropylamino)ethoxy)pyridin-3-yl)methanesulfonamide hydrochloride]	7.00 to 9.00	7.00 to 9.00
CC(C)NCCOc1ncc(-c2cc3c(cc2F)ncc2c3[C@]3(C[C@H](Nc4ccc(Cl)cc4)C3)C(=O)N2C)cc1NS(C)(=O)=O [Example 461, cis-N-(5-(3-((4-Chlorophenyl)amino)-7′-fluoro-3′-methyl-2′-oxo-2′,3′-dihydrospiro[cyclobutane-1,1′-pyrrolo[2,3-c]quinolin]-8′-yl)-2-(2-(isopropylamino)ethoxy)pyridin-3-yl)methanesulfonamide]	7.00 to 9.00	7.00 to 9.00
